Measured values reported in paper PMC8620715, “Biological Activity of Triazolopyrimidine Copper(II) Complexes Modulated by an Auxiliary N-N-Chelating Heterocycle Ligands” (Molecules, 2021).
Read-outs that look alike come from different tables or passages of the source.

Tests used:
[1] = test system: λ-DNA/EB adduct; assay: Quenching of fluorescence of λ-DNA/ethidium bromide adduct; format: binding, bacteriophage lambda; conditions: λ-DNA pre-treated with EB, pH 8
Experimental: The binding of complexes (1) and (2) to DNA was assayed by monitoring the quenching of fluorescence emitted by λ-DNA/ethidium bromide (EB) adduct (λexcit = 510 nm, maximum emission at λem = 601 nm) in the presence of different concentrations of the tested compounds [68, 69]. The fluorescence spectra were recorded in the range of 550–750 nm using a Thermo Fischer Scientific Varioskan Flash spectral scanning multimode reader (Vantaa, Finland). The spectra were recorded in suitable plates using 5 nm excitation and emission slits for all measurements.
The binding of compounds to λ-DNA was assayed by monitoring the quenching of fluorescence emitted by λ-DNA/ethidium bromide (EB) adduct (λexcit = 510, maximum emission at λem = 601). The λ-DNA solution was added to the EB solution, prepared in the same buffer, then increasing concentrations of compounds were added to EB-DNA [52, 70]. The fluorescence spectra were recorded in the range of 550–750 nm using a Thermo Fischer Scientific Varioskan Flash spectral scanning multimode reader (Vantaa, Finland). The spectra were recorded in suitable plates using 5 nm excitation and emission slits for all measurements.

[2] = test system: E. coli 25922; assay: Biofilm formation on polystyrene (crystal violet), MBEC; format: cell-based, Escherichia coli; conditions: E. coli 25922, biofilm
Experimental: (§1) The antibacterial assays were carried out using two Gram-negative (Escherichia coli ATCC 25922, Pseudomonas aeruginosa ATCC 27853) and two Gram-positive (Staphylococcus aureus ATCC 25923, MRSA (meticillin-Resistant S. aureus) 388 (ATCC, American Type Culture Collection) bacteria.
(§2) The method for assessment of biofilm formation on polystyrene microtiter plates was based on previously published protocols. The absorbance at 490 nm was measured with an Apollo LB 911ELISA (Berthold Technologies GmbH & Co. KG, Waltham, MA, USA) reader. The minimal biofilm-eradication concentration (MBEC) was defined as the lowest concentration of antibiotics required to eradicate the biofilm. All experiments were performed in triplicate.

[3] = test system: BJ cells; assay: Cell morphology by fluorescence microscopy (phalloidin staining), BJ cells; format: cell-based, human; conditions: 24 h
Experimental: (§3) The morphological changes induced by the treatment of the BJ and B16 cell lines with the tested compounds at two different concentrations (2.5 and 10 µg/mL) applied for 24 h were investigated by fluorescence microscopy.
(§4) According to the manufacturer protocol, the cytoskeleton actin filaments of BJ and B16 cells were stained with phalloidin-FITC (Sigma-Aldrich, St. Louis, MO, USA). Briefly, cells were washed with PBS (5 min, 3 times), fixed for 5 min with 3% paraformaldehyde, washed three times with PBS, permeabilized with 0.1% Triton X-100 in PBS for 15 min, washed three times with PBS, stained with 20 μg/mL phalloidin-FITC at room temperature for 1 h and rewashed three times with PBS. The cell nucleus was stained with 8 μM of Hoechst 33342 solution for 10 min, washed three times with PBS, and finally, mounted and sealed on glass slides with FluorSave™ Reagent (Merck Millipore, Germany). The fluorescence images were acquired using an Andor DSD2 Confocal Unit (Andor, Ireland), mounted on an epifluorescence microscope, Olympus BX-51 (Olympus, Germany), equipped with a 40x and 100x objective and an appropriate DAPI/Hoechst filter cube (excitation filter 390/40 […], dichroic mirror 405 nm and emission filter 452/45 nm) and GFP/FITC filter cube (excitation filter 466/40 nm, dichroic mirror 488 nm and emission filter 525/54 nm).

[4] = test system: B16 cells; assay: Cell morphology by fluorescence microscopy (phalloidin staining), B16 cells; format: cell-based, mouse; conditions: 24 h
Experimental: as §3, §4

[5] = test system: BJ normal cell line (human fibroblast cells); assay: MTT cell viability assay, BJ normal cells; format: cell-based; conditions: for IC50 / reduction of BJ cell viability at the highest concentration: BJ
Experimental: (§5) Human fibroblast cells (BJ—ATCC CRL-2522, USA) were grown in minimal essential medium (MEM) supplemented with 2 mM L-Glutamine, 10% fetal calf serum (FCS), 100 units/mL of penicillin, and 100 µg/mL of streptomycin at 37 °C in a humidified incubator under an atmosphere containing 5% CO2. Mouse melanoma cells (B16—ATCC CRL—6475, USA) were grown in DMEM (Dulbecco’s Modified Eagle Medium) supplemented with similar reagents as MEM. All cell cultivation media and reagents were purchased from Biochrom AG (Berlin, Germany) and Sigma-Aldrich (Darmstadt, Germany).
(§6) Cell viability was evaluated using 3-(4,5-dimethylthiazol-2-yl)-2,5-diphenyltetrazolium bromide (MTT) assay as described previously. First, the cells were seeded in 96-well plates (20000 cells/well) and cultured for 24 h in medium. […] The negative control was represented by cells cultivated in a medium without the investigated compounds. Following incubation, the medium was changed, and the MTT solution was added to each well to a final concentration of 1 mg/mL and incubated for an additional 4 h, at 37 °C. Finally, the medium was collected, and DMSO was used to dissolve the insoluble formazan product. The absorbance of the samples was recorded at 570 nm using a plate reader Mithras 940 (Berthold). The data were corrected for the background, and the percentage of viable cells was obtained using the equation:Cell viability = [(A570 of treated cells)/(A570 of untreated cells)] × 100%(1)
(§7) The half-maximal inhibitory concentration (IC50) was determined by fitting the data with a sigmoidal logistical equation using the software Origin 8.1 (Microcal Inc., Los Angeles, CA, USA).

[6] = test system: B16 murine melanoma cell line; assay: MTT cell viability assay, B16 melanoma cells; format: cell-based, mouse; conditions: for TI (therapeutic index): BJ vs B16, where no toxicity at highest concentration, a value two times higher was used
Experimental: as §5, §6, §7

[7] = test system: S. aureus 25923; assay: Biofilm formation on polystyrene (crystal violet), MBEC; format: cell-based, Staphylococcus aureus; conditions: S. aureus 25923, biofilm
Experimental: as §1, §2

[8] = test system: MRSA 388; assay: as above; format: cell-based, Staphylococcus aureus; conditions: MRSA 388, biofilm
Experimental: as §1, §2

[9] = 2.5 µg/mL (2.84 μM and 2.76 μM for the complexes)

## Cc1cc(C)n2ncnc2n1.Cc1cc(C)n2ncnc2n1.Cc1cc(C)n2ncnc2n1.O.[Cu+2].[O-][Cl+3]([O-])([O-])[O-].[O-][Cl+3]([O-])([O-])[O-].c1cnc2c(c1)ccc1cccnc12 [Complex (2), [Cu(phen)(dmtp)2(OH2)](ClO4)2·dmtp]
[1]
  fluorescence of λ-DNA/EB adduct on adding complex: fluorescence intensity decreased
[2]
  MBEC: 0.17 mM
[3]; 10 μg/mL (11.05 µM)
  morphological changes of BJ cells: affected the cellular morphology
[4]; [9]
  morphological changes of B16 cells: not altered
[4]; 10 μg/mL (11.05 µM)
  morphological changes of B16 cells: significant changes
[5]; 24 h
  IC50: 13.61 µg/mL
  reduction of BJ cell viability at the highest concentration: up to 45%
[5]; 24 h, read-out: IC50
  IC50: 15 µM
[5]; 48 h
  IC50: 4.50 µg/mL
  reduction of BJ cell viability at the highest concentration: up to 10%
[5]; 48 h, read-out: IC50
  IC50: 4.97 µM
[6]; 24 h
  TI (therapeutic index): 1.98
[6]; 48 h
  TI (therapeutic index): 1.08
[6]; B16
  B16 cell viability decreased to: 5%
[6]; B16, 24 h
  IC50: 6.88 µg/mL
[6]; B16, 24 h, read-out: IC50
  IC50: 7.6 µM
[6]; B16, 48 h
  IC50: 4.15 µg/mL
[6]; B16, 48 h, read-out: IC50
  IC50: 4.58 µM
[7]
  MBEC: 0.04 mM
[8]
  MBEC: 0.04 mM

## Cc1cc(C)n2ncnc2n1.Cc1cc(C)n2ncnc2n1.Cc1cc(C)n2ncnc2n1.O.[Cu+2].[O-][Cl+3]([O-])([O-])[O-].[O-][Cl+3]([O-])([O-])[O-].c1ccc(-c2ccccn2)nc1 [Complex (1), [Cu(bpy)(dmtp)2(OH2)](ClO4)2·dmtp]
[1]
  fluorescence of λ-DNA/EB adduct on adding complex: fluorescence intensity decreased
[2]
  MBEC: 0.71 mM
[3]; 2.5 and 10 µg/mL
  morphological changes of BJ cells: no effect was observed
[4]; [9]
  morphological changes of B16 cells: not altered
[5]; range of tested concentrations, 24 h and 48 h
  effect on viability of BJ cells: not affected
[6]; 24 h
  TI (therapeutic index): 8.68
[6]; 24 h and 48 h
  effect on viability of B16 cells: reduced the viability of B16 cells
[6]; 48 h
  TI (therapeutic index): 12.82
[6]; B16, 24 h
  IC50: 5.76 µg/mL
[6]; B16, 24 h, read-out: IC50
  IC50: 6.5 µM
[6]; B16, 48 h
  IC50: 3.90 µg/mL
[6]; B16, 48 h, read-out: IC50
  IC50: 4.42 µM
[7]
  MBEC: 0.18 mM
[8]
  MBEC: 0.35 mM
